Test results from patent US6806230B1, “Pyrimidine derivatives and herbicides containing them” (Kumiai Chemical Industry Co., Ltd., priority 1999, dated 2004).

The compounds below were run on barnyard grass (Eo) (assay: Test Example 1: herbicidal effects by flooded paddy field treatment). Conditions: dose 100 gai/10a, examined on 21st day after treatment, index 0-5 per Table 44.
Assay type: in vivo
In short: (§1)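 Herbicidal effect scored 21 days post-treatment after greenhouse cultivation. Treatment was applied dropwise to the water surface, one day after sowing, as a diluted wettable powder (100 g a.i./10 ares). Pots held puddled paddy soil under 3 cm water.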
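Throughout, for Herbicidal effect index, Eo: 0-5 growth inhibition grade; 5 = over 90%; 4 = 70-90%; 3 = 50-70%; 2 = 30-50%; 1 = 10-30%; 0 = under 10%.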
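Throughout, for Herbicidal effect index, Mo: 0-5 growth inhibition grade; 5 = over 90%; 4 = 70-90%; 3 = 50-70%; 2 = 30-50%; 1 = 10-30%; 0 = under 10%.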
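Throughout, for herbicidal effects, Se (green foxtail): 0-5 growth inhibition grade; 5 = over 90%; 4 = 70-90%; 3 = 50-70%; 2 = 30-50%; 1 = 10-30%; 0 = under 10%.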

Structure (SMILES)	Herbicidal effect index, Eo
COc1ccc(CC(=O)N(C)C(c2cncnc2C(F)(F)F)C(C)C)cc1 (racemic) [Compound 1-9]	5
CCN(C(=O)Cc1ccc(F)cc1)C(c1cncnc1C(F)(F)F)C(C)C (racemic) [Compound 1-27]	5
CC(C)C(c1cncnc1C(F)(F)F)N(C)C(=O)Cc1cccc(F)c1 (racemic) [Compound 1-66]	5
CC(C)C(c1cncnc1C(F)(F)F)N(C)C(=O)Cc1ccc(F)c(F)c1 (racemic) [Compound 1-122]	5
Cc1ncncc1C(C(C)C)N(C)C(=O)Cc1ccc(F)cc1 (racemic) [Compound 1-88]	5
CC(C)C(c1cncnc1C(F)(F)F)N(C)C(=O)Cc1ccc(OC(F)F)cc1 (racemic) [Compound 1-96]	5
CCC(C)C(c1cncnc1C(F)(F)F)N(C)C(=O)Cc1ccccc1 (mixture of isomers) [Compound 1-57]	5
CC(C)C(c1cncnc1C(F)(F)F)N(C)C(=O)Sc1ccccc1 (racemic) [Compound 1-10]	5
CC(C)C(c1cncnc1C(F)(F)F)N(C)C(=O)Cc1ccc(C(F)(F)F)cc1 (racemic) [Compound 1-24]	5
Cc1cc(CC(=O)N(C)C(c2cncnc2C(F)(F)F)C(C)C)ccc1Cl (racemic) [Compound 1-120]	5
COCN(C(=O)Cc1ccc(C)cc1)C(c1cncnc1C(F)(F)F)C(C)C (racemic) [Compound 1-106]	5
CN(C(=O)Cc1ccccc1)C(c1cncnc1C(F)(F)Cl)C1CC1 (racemic) [Compound 1-91]	5
CC(C)C(c1cncnc1C(F)(F)F)N(C)C(=O)COc1ccccc1F (racemic) [Compound 1-125]	5

Each compound was assayed on monochoria (Mo) in the same assay as above. Conditions: dose 100 gai/10a, examined on 21st day after treatment, index 0-5 per Table 44.
Assay type: in vivo
In short: as §1

Structure (SMILES)	Herbicidal effect index, Mo
COc1ccc(CC(=O)N(C)C(c2cncnc2C(F)(F)F)C(C)C)cc1 (racemic) [Compound 1-9]	5
CCN(C(=O)Cc1ccc(F)cc1)C(c1cncnc1C(F)(F)F)C(C)C (racemic) [Compound 1-27]	5
CC(C)C(c1cncnc1C(F)(F)F)N(C)C(=O)Cc1cccc(F)c1 (racemic) [Compound 1-66]	5
CC(C)C(c1cncnc1C(F)(F)F)N(C)C(=O)Cc1ccc(F)c(F)c1 (racemic) [Compound 1-122]	5
Cc1ncncc1C(C(C)C)N(C)C(=O)Cc1ccc(F)cc1 (racemic) [Compound 1-88]	5
CC(C)C(c1cncnc1C(F)(F)F)N(C)C(=O)Cc1ccc(OC(F)F)cc1 (racemic) [Compound 1-96]	5
CCC(C)C(c1cncnc1C(F)(F)F)N(C)C(=O)Cc1ccccc1 (mixture of isomers) [Compound 1-57]	5
CC(C)C(c1cncnc1C(F)(F)F)N(C)C(=O)Sc1ccccc1 (racemic) [Compound 1-10]	5
CC(C)C(c1cncnc1C(F)(F)F)N(C)C(=O)Cc1ccc(C(F)(F)F)cc1 (racemic) [Compound 1-24]	5
Cc1cc(CC(=O)N(C)C(c2cncnc2C(F)(F)F)C(C)C)ccc1Cl (racemic) [Compound 1-120]	5
COCN(C(=O)Cc1ccc(C)cc1)C(c1cncnc1C(F)(F)F)C(C)C (racemic) [Compound 1-106]	5
CN(C(=O)Cc1ccccc1)C(c1cncnc1C(F)(F)Cl)C1CC1 (racemic) [Compound 1-91]	5
CC(C)C(c1cncnc1C(F)(F)F)N(C)C(=O)COc1ccccc1F (racemic) [Compound 1-125]	5

Each compound was assayed on barnyard grass (Ec) (assay: Test Example 2: herbicidal effects by upland soil treatment). Conditions: dose 100 g active ingredient per 10 ares, examined on the 21st day after treatment, standards of Table 44.
Assay type: in vivo
Set-up: scale not given here
In short: (§2)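 Pre-emergence test: barnyard grass and green foxtail sown in upland soil, then soil surface sprayed with wettable-powder formulation at 100 g active ingredient per 10 ares (100 l per 10 ares). Grown in greenhouse; herbicidal effect scored on a rating scale 21 days after treatment.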

Structure (SMILES)	herbicidal effects, Ec (barnyard grass)
CN(C(=O)Cc1ccc(F)cc1)C(c1cncnc1C(F)(F)Cl)C1CC1 (racemic) [Compound 1-92]	5
COc1ccc(CC(=O)N(C)C(c2cncnc2C(F)(F)F)C(C)C)cc1 (racemic) [Compound 1-9]	5
CCN(C(=O)Cc1ccc(F)cc1)C(c1cncnc1C(F)(F)F)C(C)C (racemic) [Compound 1-27]	5
CC(C)C(c1cncnc1C(F)(F)F)N(C)C(=O)Cc1cccc(F)c1 (racemic) [Compound 1-66]	5
CC(C)C(c1cncnc1C(F)(F)F)N(C)C(=O)Cc1ccc(F)c(F)c1 (racemic) [Compound 1-122]	5
Cc1ncncc1C(C(C)C)N(C)C(=O)Cc1ccc(F)cc1 (racemic) [Compound 1-88]	5
CC(C)C(c1cncnc1C(F)(F)F)N(C)C(=O)Cc1ccc(OC(F)F)cc1 (racemic) [Compound 1-96]	5
CCC(C)C(c1cncnc1C(F)(F)F)N(C)C(=O)Cc1ccccc1 (mixture of isomers) [Compound 1-57]	5
CC(C)C(c1cncnc1C(F)(F)F)N(C)C(=O)Sc1ccccc1 (racemic) [Compound 1-10]	4
CC(C)C(c1cncnc1C(F)(F)F)N(C)C(=O)Cc1ccc(C(F)(F)F)cc1 (racemic) [Compound 1-24]	5
Cc1cc(CC(=O)N(C)C(c2cncnc2C(F)(F)F)C(C)C)ccc1Cl (racemic) [Compound 1-120]	5
COCN(C(=O)Cc1ccc(C)cc1)C(c1cncnc1C(F)(F)F)C(C)C (racemic) [Compound 1-106]	5
CN(C(=O)Cc1ccccc1)C(c1cncnc1C(F)(F)Cl)C1CC1 (racemic) [Compound 1-91]	4
CC(C)C(c1cncnc1C(F)(F)F)N(C)C(=O)COc1ccccc1F (racemic) [Compound 1-125]	5

Each compound was assayed on green foxtail (Se) in the same assay as above. Conditions: dose 100 g active ingredient per 10 ares, examined on the 21st day after treatment, standards of Table 44.
Assay type: in vivo
In short: as §2

Structure (SMILES)	herbicidal effects, Se (green foxtail)
CN(C(=O)Cc1ccc(F)cc1)C(c1cncnc1C(F)(F)Cl)C1CC1 (racemic) [Compound 1-92]	5
COc1ccc(CC(=O)N(C)C(c2cncnc2C(F)(F)F)C(C)C)cc1 (racemic) [Compound 1-9]	5
CCN(C(=O)Cc1ccc(F)cc1)C(c1cncnc1C(F)(F)F)C(C)C (racemic) [Compound 1-27]	5
CC(C)C(c1cncnc1C(F)(F)F)N(C)C(=O)Cc1cccc(F)c1 (racemic) [Compound 1-66]	5
CC(C)C(c1cncnc1C(F)(F)F)N(C)C(=O)Cc1ccc(F)c(F)c1 (racemic) [Compound 1-122]	5
Cc1ncncc1C(C(C)C)N(C)C(=O)Cc1ccc(F)cc1 (racemic) [Compound 1-88]	5
CC(C)C(c1cncnc1C(F)(F)F)N(C)C(=O)Cc1ccc(OC(F)F)cc1 (racemic) [Compound 1-96]	5
CCC(C)C(c1cncnc1C(F)(F)F)N(C)C(=O)Cc1ccccc1 (mixture of isomers) [Compound 1-57]	5
CC(C)C(c1cncnc1C(F)(F)F)N(C)C(=O)Sc1ccccc1 (racemic) [Compound 1-10]	4
CC(C)C(c1cncnc1C(F)(F)F)N(C)C(=O)Cc1ccc(C(F)(F)F)cc1 (racemic) [Compound 1-24]	5
Cc1cc(CC(=O)N(C)C(c2cncnc2C(F)(F)F)C(C)C)ccc1Cl (racemic) [Compound 1-120]	4
COCN(C(=O)Cc1ccc(C)cc1)C(c1cncnc1C(F)(F)F)C(C)C (racemic) [Compound 1-106]	4
CN(C(=O)Cc1ccccc1)C(c1cncnc1C(F)(F)Cl)C1CC1 (racemic) [Compound 1-91]	5
CC(C)C(c1cncnc1C(F)(F)F)N(C)C(=O)COc1ccccc1F (racemic) [Compound 1-125]	5

The compounds below were run on barnyard grass (Ec) (assay: Test Example 3: herbicidal effects by foliage treatment in upland field). Conditions: dose 100 g active ingredient per 10 ares, examined on the 14th day after treatment.
Assay type: in vivo
Set-up: scale not given here
In short: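 Barnyard grass and green foxtail were grown in upland soil for 2 weeks in a greenhouse. A water-diluted wettable powder was sprayed over the foliage at 100 l per 10 ares, giving 100 g active ingredient per 10 ares. Herbicidal effect was scored on day 14 after treatment.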

Structure (SMILES)	Ec (herbicidal effects, index)
CN(C(=O)Cc1ccc(F)cc1)C(c1cncnc1C(F)(F)Cl)C1CC1 (racemic) [Compound 1-92]	5
COc1ccc(CC(=O)N(C)C(c2cncnc2C(F)(F)F)C(C)C)cc1 (racemic) [Compound 1-9]	5
CCN(C(=O)Cc1ccc(F)cc1)C(c1cncnc1C(F)(F)F)C(C)C (racemic) [Compound 1-27]	4
CC(C)C(c1cncnc1C(F)(F)F)N(C)C(=O)Cc1cccc(F)c1 (racemic) [Compound 1-66]	5
CC(C)C(c1cncnc1C(F)(F)F)N(C)C(=O)Cc1ccc(F)c(F)c1 (racemic) [Compound 1-122]	4
Cc1ncncc1C(C(C)C)N(C)C(=O)Cc1ccc(F)cc1 (racemic) [Compound 1-88]	4
CC(C)C(c1cncnc1C(F)(F)F)N(C)C(=O)Cc1ccc(OC(F)F)cc1 (racemic) [Compound 1-96]	5
CCC(C)C(c1cncnc1C(F)(F)F)N(C)C(=O)Cc1ccccc1 (mixture of isomers) [Compound 1-57]	5
CC(C)C(c1cncnc1C(F)(F)F)N(C)C(=O)Sc1ccccc1 (racemic) [Compound 1-10]	4
CC(C)C(c1cncnc1C(F)(F)F)N(C)C(=O)Cc1ccc(C(F)(F)F)cc1 (racemic) [Compound 1-24]	4

The compounds below were run on barnyard grass (Eo) (assay: Test Example 4: selectivity for a crop plant by flooded paddy field treatment). Conditions: barnyard grass, dose 25 gai/10a, 21st day after treatment, index per Table 44.
Assay type: in vivo
Set-up: scale not given here
In short: (§3)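 Flooded-paddy treatment: the wettable powder formulation, diluted in water, was applied dropwise to 3 cm floodwater at 25 g a.i./10 ares one day after sowing barnyard grass and monochoria and transplanting rice at the second leaf stage. Greenhouse grown; herbicidal effect rated against set standards on day 21.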

Structure (SMILES)	Eo (herbicidal effect index)
Cc1cc(CC(=O)N(C)C(c2cncnc2C(F)(F)F)C(C)C)ccc1Cl (racemic) [Compound 1-120]	5
COCN(C(=O)Cc1ccc(C)cc1)C(c1cncnc1C(F)(F)F)C(C)C (racemic) [Compound 1-106]	5
CC(C)C(c1cncnc1C(F)(F)F)N(C)C(=O)COc1ccccc1F (racemic) [Compound 1-125]	5

Same assay, conditions: dose 25 g active ingredient per 10 ares, examined on the 21st day after treatment

Structure (SMILES)	Eo (herbicidal effects, index)
CN(C(=O)Cc1ccccc1)C(c1cncnc1C(F)(F)Cl)C1CC1 (racemic) [Compound 1-91]	5

The compounds below were run on monochoria (Mo) in the same assay as above. Conditions: dose 25 g active ingredient per 10 ares, examined on the 21st day after treatment.
Assay type: in vivo
Set-up: scale not given here
In short: as §3

Structure (SMILES)	Mo (herbicidal effects, index)
CN(C(=O)Cc1ccccc1)C(c1cncnc1C(F)(F)Cl)C1CC1 (racemic) [Compound 1-91]	5

Same assay, conditions: monochoria, dose 25 gai/10a, 21st day after treatment, index per Table 44

Structure (SMILES)	Mo (herbicidal effect index)
Cc1cc(CC(=O)N(C)C(c2cncnc2C(F)(F)F)C(C)C)ccc1Cl (racemic) [Compound 1-120]	5
COCN(C(=O)Cc1ccc(C)cc1)C(c1cncnc1C(F)(F)F)C(C)C (racemic) [Compound 1-106]	5
CC(C)C(c1cncnc1C(F)(F)F)N(C)C(=O)COc1ccccc1F (racemic) [Compound 1-125]	5

The compounds below were run on rice (Or) in the same assay as above. Conditions: rice transplanted at second leaf stage, dose 25 g active ingredient per 10 ares, examined on the 21st day after treatment.
Assay type: in vivo
Set-up: scale not given here
In short: as §3

Or (effect on crop plant rice, index)	Structure (SMILES)
1	CN(C(=O)Cc1ccccc1)C(c1cncnc1C(F)(F)Cl)C1CC1 (racemic) [Compound 1-91]

Same assay, conditions: rice transplanted at second leaf stage, dose 25 gai/10a, 21st day after treatment, index per Table 44

Structure (SMILES)	Or (herbicidal effect index on crop)
Cc1cc(CC(=O)N(C)C(c2cncnc2C(F)(F)F)C(C)C)ccc1Cl (racemic) [Compound 1-120]	0
COCN(C(=O)Cc1ccc(C)cc1)C(c1cncnc1C(F)(F)F)C(C)C (racemic) [Compound 1-106]	0
CC(C)C(c1cncnc1C(F)(F)F)N(C)C(=O)COc1ccccc1F (racemic) [Compound 1-125]	0
